Test system: BALB/c mice
Test: In vivo delivery of lipid nanoparticle encapsulating luciferase mRNA (Fluc mRNA), IVIS imaging
Conditions: for Total flux (fluorescence expression intensity): Fluc mRNA-LNP (amino lipid:DSPC:CHO-HP:PEG2000-DMG 48:10:40.5:1.5), whole body; for Total flux (fluorescence expression intensity) / Spleen (fluorescence expression intensity) / Liver (fluorescence expression intensity): 75 μL tail vein IV, female BALB/c mice, IVIS 6 hours after injection; for Spleen (fluorescence expression intensity) / (Spleen/Total Flux) * 100% / Multiple of spleen delivery/total delivery (Spleen/Total Flux) to Compound 118 / Liver (fluorescence expression intensity): Fluc mRNA-LNP; for (Spleen/Total Flux) * 100% / Multiple of spleen delivery/total delivery (Spleen/Total Flux) to Compound 118: tail vein IV, BALB/c mice, 6 hours; for Multiple of spleen delivery/total delivery (Spleen/Total Flux) to Compound 118: relative to Compound 118
Description: The amino lipid compound of the present disclosure, a helper lipid, a structural lipid, and a PEG-lipid were separately dissolved in absolute ethanol to prepare respective solutions at concentrations of 20 mg/mL, 10 mg/mL, 20 mg/mL, and 25 mg/mL, respectively. The above four solutions were pipetted at a molar ratio of the amino lipid compound: DSPC:CHO-HP:PEG2000-DMG of 48:10:40.5:1.5, and mixed well to prepare an alcohol phase.
(2) Encapsulation: The water phase and the alcohol phase were injected into a microfluidic chip at a flow rate of water phase:alcohol phase=12 mL/min: 4 mL/min by using a microfluidic preparation instrument (MPE-L2), and encapsulation was carried out at a flow rate of water phase:alcohol phase=9 mL/min: 3 mL/min to obtain mRNA-encapsulating lipid nanoparticle (mRNA-LNP).
(3) Dialysis: The product of step (2) was loaded in a dialysis bag and placed in a Tris Buffer-8% sucrose solution for replacement to remove ingredients such as residual ethanol, unassembled lipids. Dialysis was conducted for 2 h with magnetic stirring at room temperature and under protection from light (dialysate was replaced every 1 hour).
(4) The product of step (3) was sterilized by passing through a 0.22 μm microporous membrane, and then packaged.
Lipid nanoparticle formulations encapsulating Flue mRNA were prepared, with a concentration of Flue mRNA of 0.2 μg/μL, a mass ratio of Flue mRNA to Lipid of 1:10, a particle size of 80-130 nm, and a encapsulation efficiency of 80% or higher.
• Animal preparation: Female BALB/c mice of 6-8 weeks old were selected and raised in an SPF grade breeding room. Animal testing was conducted in strict accordance with the guidelines of national health institutions and animal ethics requirements.
In vivo Delivery: prior to injection of the test LNP formulations, the LNP formulations were gently and repeatedly inverted to thoroughly mix the formulation samples. A corresponding amount of the formulation samples were aspirated with a 1 ml insulin syringe, and the LNP formulations were injected by tail vein injection (IV), with 3 mice in duplicate per formulation. Each mouse was injected with 75 μL of the luciferase mRNA (Flue mRNA)-encapsulating lipid nanoparticle formulation prepared in Experimental Example 1.
6 hours after injection of LNP formulations, mice were injected with 200 μL D-Luciferin luciferase developing substrate (Catalog No. 122799; Manufacturer: Perkin Elmer). After the substrate was injected, the mice were anesthetized by injection of 200 μl of 2.5% avertin, and the injection time of luciferase developing substrate was recorded.
The fluorescence expression intensity induced by the lipid nanoparticle encapsulating luciferase mRNA (Flue mRNA) with a representative amino lipid compound is shown in Table 4, with the amino lipid compound 118 as a control.

SMILES	Total flux (fluorescence expression intensity)	Spleen (fluorescence expression intensity)	(Spleen/Total Flux) * 100% [%]	Multiple of spleen delivery/total delivery (Spleen/Total Flux) to Compound 118	Liver (fluorescence expression intensity)
CCCCCCC(CCCCCC)OC(=O)CCCCCCCCC(CCCCCCCCC(=O)OC(CCCCCC)CCCCCC)N(CCCN(C)C)C(=O)COCCCC [compound 119]	2.65E+07	6.80E+06	25.66	22.51	–
CCCCCCC(CCCCCC)OC(=O)CCCCCCCCC(CCCCCCCCC(=O)OC(CCCCCC)CCCCCC)N(CCCN(C)C)C(=O)COCCCCC [compound 120]	3.48E+07	6.46E+06	18.56	16.28	–
CCCCCCOCC(=O)N(CCCN(C)C)C(CCCCCCCCC(=O)OC(CCCCCC)CCCCCC)CCCCCCCCC(=O)OC(CCCCCC)CCCCCC [compound 121]	3.07E+07	7.14E+06	23.26	20.40	–
CCCCCCCOCC(=O)N(CCCN(C)C)C(CCCCCCCCC(=O)OC(CCCCCC)CCCCCC)CCCCCCCCC(=O)OC(CCCCCC)CCCCCC [compound 122]	3.56E+07	3.02E+06	8.48	7.44	–
CCCCCCCCOCC(=O)N(CCCN(C)C)C(CCCCCCCCC(=O)OC(CCCCCC)CCCCCC)CCCCCCCCC(=O)OC(CCCCCC)CCCCCC [compound 123]	5.95E+07	4.02E+06	6.76	5.93	–
CCCCCCC(CCCCCC)OC(=O)CCCCCCCCC(CCCCCCCCC(=O)OC(CCCCCC)CCCCCC)N(CCCN(C)C)C(=O)CCOCCCC [compound 124]	3.45E+07	6.18E+06	17.91	15.71	–
CCCCCCC(CCCCCC)OC(=O)CCCCCCCCC(CCCCCCCCC(=O)OC(CCCCCC)CCCCCC)N(CCCN(C)C)C(=O)CCOCCCCC [compound 125]	5.40E+07	2.72E+06	5.04	4.42	–
CCCCCCOCCC(=O)N(CCCN(C)C)C(CCCCCCCCC(=O)OC(CCCCCC)CCCCCC)CCCCCCCCC(=O)OC(CCCCCC)CCCCCC [compound 126]	5.39E+07	6.87E+06	12.75	11.18	–
CCCCCCCOCCC(=O)N(CCCN(C)C)C(CCCCCCCCC(=O)OC(CCCCCC)CCCCCC)CCCCCCCCC(=O)OC(CCCCCC)CCCCCC [compound 127]	3.56E+07	4.60E+06	12.92	11.33	–
CCCCCCCCOCCC(=O)N(CCCN(C)C)C(CCCCCCCCC(=O)OC(CCCCCC)CCCCCC)CCCCCCCCC(=O)OC(CCCCCC)CCCCCC [compound 128]	5.62E+07	3.01E+06	5.36	4.70	–
CCCCCCC(CCCCCC)OC(=O)CCCCCCCCC(CCCCCCCCC(=O)OC(CCCCCC)CCCCCC)N(CCCN(C)C)C(=O)CCCOCCCC [compound 129]	3.53E+07	1.33E+07	37.68	33.05	–
CCCCCCCOCCCC(=O)N(CCCN(C)C)C(CCCCCCCCC(=O)OC(CCCCCC)CCCCCC)CCCCCCCCC(=O)OC(CCCCCC)CCCCCC [compound 132]	2.70E+07	6.10E+06	22.59	19.82	–
CCCCCCC(CCCCCC)OC(=O)CCCCCCCCC(CCCCCCCCC(=O)OC(CCCCCC)CCCCCC)N(CCN(C)C)C(=O)COCCCCC [compound 145]	1.21E+07	1.04E+05	0.86	0.75	–
CCCCCCOCC(=O)N(CCN(C)C)C(CCCCCCCCC(=O)OC(CCCCCC)CCCCCC)CCCCCCCCC(=O)OC(CCCCCC)CCCCCC [compound 146]	1.37E+07	6.65E+04	0.49	0.43	–
CCCCCCCOCC(=O)N(CCN(C)C)C(CCCCCCCCC(=O)OC(CCCCCC)CCCCCC)CCCCCCCCC(=O)OC(CCCCCC)CCCCCC [compound 147]	4.97E+06	1.13E+05	2.27	1.99	–
CCCCCCCCOCC(=O)N(CCN(C)C)C(CCCCCCCCC(=O)OC(CCCCCC)CCCCCC)CCCCCCCCC(=O)OC(CCCCCC)CCCCCC [compound 148]	4.45E+06	1.07E+05	2.40	2.11	–
CCCCCCC(CCCCCC)OC(=O)CCCCCCCCC(CCCCCCCCC(=O)OC(CCCCCC)CCCCCC)N(CCN(C)C)C(=O)CCOCCCC [compound 149]	5.80E+06	1.29E+05	2.22	1.95	–
CCCCCCC(CCCCCC)OC(=O)CCCCCCCCC(CCCCCCCCC(=O)OC(CCCCCC)CCCCCC)N(CCN(C)C)C(=O)CCOCCCCC [compound 150]	2.06E+07	2.27E+05	1.10	0.97	5.51E+06
CCCCCCOCCC(=O)N(CCN(C)C)C(CCCCCCCCC(=O)OC(CCCCCC)CCCCCC)CCCCCCCCC(=O)OC(CCCCCC)CCCCCC [compound 151]	2.29E+07	1.30E+05	0.57	0.50	8.91E+06
CCCCCCOCCCC(=O)N(CCN(C)C)C(CCCCCCCCC(=O)OC(CCCCCC)CCCCCC)CCCCCCCCC(=O)OC(CCCCCC)CCCCCC [compound 156]	3.07E+07	2.34E+05	0.76	0.67	9.75E+06
CCCCCCCOCCCC(=O)N(CCN(C)C)C(CCCCCCCCC(=O)OC(CCCCCC)CCCCCC)CCCCCCCCC(=O)OC(CCCCCC)CCCCCC [compound 157]	2.80E+07	2.26E+05	0.81	0.71	1.07E+07
CCCCCCC(CCCCCC)OC(=O)CCCCCCCCC(CCCCCCCCC(=O)OC(CCCCCC)CCCCCC)N(CCCCN(C)C)C(=O)COCCCC [compound 166]	1.25E+07	8.07E+06	64.56	56.63	7.74E+06

— patent US20260015315A1, “AMINO LIPID COMPOUND, PREPARATION METHOD THEREFOR, COMPOSITION THEREOF AND APPLICATION THEREOF” (SHENZHEN SHENXIN BIOTECHNOLOGY CO., LTD., priority 2022, published 2026)
